Data: ChEMBL document CHEMBL3885861, “Open TG-GATES”

Species on record: Rattus norvegicus
Test: Open TG-GATES - Regimen: Daily Repeat
Format: toxicity, organism-based, Sprague-Dawley
Set-up: regimen Daily Repeat, gender Male, age 6 weeks
Conditions: in vivo, po, 20 mg/kg, route gavage, dose level Low; for APTT / Bas / Eos / Fbg / Hb / Ht / Lym / MCH / MCHC / MCV / Mono / Neu / PT / Plat / RBC / Ret / WBC: tissue Blood; for KIDNEY_L / KIDNEY_R / KIDNEY_TOTAL: tissue Kidney; for LIVER: tissue Liver; for A/G / ALP / ALT / AST / BUN / CRE / Ca / Cl / DBIL / GLC / IP / K / LDH / Na / PL / RALB / TBIL / TC / TG / TP / gamma-GTP: tissue Plasma

With `Cn1c(=O)c2[nH]cnc2n(C)c1=O.O` [THEOPHYLLINE] the TERMINAL_BW (72 h, time 3 day) was 242.7 g, the APTT (72 h, time 3 day) was 22.4 s and the Bas (72 h, time 3 day) was 0%. It also gave an Eos (72 h, time 3 day) of 1%, a Fbg (72 h, time 3 day) of 305.4 mg/dL and a Hb (72 h, time 3 day) of 13.4 g/dL. It also gave a Ht (72 h, time 3 day) of 39.6%, a Lym (72 h, time 3 day) of 76.6% and an MCH (72 h, time 3 day) of 21.2 pg. The MCHC (72 h, time 3 day) was 33.8%, the MCV (72 h, time 3 day) was 62.6 fL and the Mono (72 h, time 3 day) was 3.2%. The Neu (72 h, time 3 day) was 18%, the PT (72 h, time 3 day) was 15.5 s and the Plat (72 h, time 3 day) was 119.5 x10_4/uL. The RBC (72 h, time 3 day) was 632.4 x10_4/ul, the Ret (72 h, time 3 day) was 5.9% and the WBC (72 h, time 3 day) was 125.2 x10_2/uL. For the same compound, the KIDNEY_L (72 h, time 3 day) was 1.1 g, the KIDNEY_R (72 h, time 3 day) was 1.1 g and the KIDNEY_TOTAL (72 h, time 3 day) was 2.1 g. It also gave an LIVER (72 h, time 3 day) of 10.9 g, an A/G (72 h, time 3 day) of 1.3 and an ALP (72 h, time 3 day) of 1574.4 IU/L. It also gave an ALT (72 h, time 3 day) of 45.2 IU/L, an AST (72 h, time 3 day) of 71.8 IU/L and a BUN (72 h, time 3 day) of 15.4 mg/dL. It also gave a CRE (72 h, time 3 day) of 0.2 mg/dL, a Ca (72 h, time 3 day) of 10.6 mg/dL and a Cl (72 h, time 3 day) of 106.8 meq/L. It also gave a DBIL (72 h, time 3 day) of 0 mg/dL, a GLC (72 h, time 3 day) of 194.8 mg/dL and an IP (72 h, time 3 day) of 7.4 mg/dL. It also gave a K (72 h, time 3 day) of 4.4 meq/L, an LDH (72 h, time 3 day) of 167.2 IU/L and a Na (72 h, time 3 day) of 142.4 meq/L. For the same compound, the PL (72 h, time 3 day) was 132.6 mg/dL, the RALB (72 h, time 3 day) was 3 g/dL and the TBIL (72 h, time 3 day) was 0.004 mg/dL. For the same compound, the TC (72 h, time 3 day) was 70 mg/dL, the TG (72 h, time 3 day) was 97 mg/dL and the TP (72 h, time 3 day) was 5.5 g/dL. For the same compound, the gamma-GTP (72 h, time 3 day) was 1.6 IU/L, the TERMINAL_BW ([…], time 7 day) was 271.5 g and the TERMINAL_BW ([…], time 14 day) was 324.6 g. It also gave a TERMINAL_BW ([…], time 28 day) of 357.5 g, an APTT ([…], time 7 day) of 24 s and a Bas ([…], time 7 day) of 0%. For the same compound, the Eos ([…], time 7 day) was 1%, the Fbg ([…], time 7 day) was 312.6 mg/dL and the Hb ([…], time 7 day) was 14.2 g/dL. The Ht ([…], time 7 day) was 41.1%, the Lym ([…], time 7 day) was 80% and the MCH ([…], time 7 day) was 20.9 pg. The MCHC ([…], time 7 day) was 34.5%, the MCV ([…], time 7 day) was 60.5 fL and the Mono ([…], time 7 day) was 2.6%. For the same compound, the Neu ([…], time 7 day) was 14.4%, the PT ([…], time 7 day) was 15.4 s and the Plat ([…], time 7 day) was 111.8 x10_4/uL. For the same compound, the RBC ([…], time 7 day) was 679 x10_4/ul, the Ret ([…], time 7 day) was 5.3% and the WBC ([…], time 7 day) was 121.9 x10_2/uL. It also gave an APTT ([…], time 14 day) of 24.1 s, a Bas ([…], time 14 day) of 0% and an Eos ([…], time 14 day) of 1%. The Fbg ([…], time 14 day) was 333.4 mg/dL, the Hb ([…], time 14 day) was 14.4 g/dL and the Ht ([…], time 14 day) was 42.7%. The Lym ([…], time 14 day) was 80%, the MCH ([…], time 14 day) was 19.9 pg and the MCHC ([…], time 14 day) was 33.7%. The MCV ([…], time 14 day) was 59 fL, the Mono ([…], time 14 day) was 2.4% and the Neu ([…], time 14 day) was 14.6%. It also gave a PT ([…], time 14 day) of 15.3 s, a Plat ([…], time 14 day) of 110.9 x10_4/uL and an RBC ([…], time 14 day) of 724.8 x10_4/ul. It also gave a Ret ([…], time 14 day) of 4.9%, a WBC ([…], time 14 day) of 110 x10_2/uL and an APTT ([…], time 28 day) of 26.7 s. For the same compound, the Bas ([…], time 28 day) was 0%, the Eos ([…], time 28 day) was 1% and the Fbg ([…], time 28 day) was 333.2 mg/dL. It also gave a Hb ([…], time 28 day) of 15.4 g/dL, a Ht ([…], time 28 day) of 44.6% and a Lym ([…], time 28 day) of 83.6%. For the same compound, the MCH ([…], time 28 day) was 18.7 pg, the MCHC ([…], time 28 day) was 34.4% and the MCV ([…], time 28 day) was 54.4 fL. For the same compound, the Mono ([…], time 28 day) was 1.6%, the Neu ([…], time 28 day) was 12.8% and the PT ([…], time 28 day) was 15.8 s. It also gave a Plat ([…], time 28 day) of 108.7 x10_4/uL, an RBC ([…], time 28 day) of 820.8 x10_4/ul and a Ret ([…], time 28 day) of 2.5%. It also gave a WBC ([…], time 28 day) of 112.5 x10_2/uL, a KIDNEY_L ([…], time 7 day) of 1.1 g and a KIDNEY_R ([…], time 7 day) of 1.2 g. It also gave a KIDNEY_TOTAL ([…], time 7 day) of 2.3 g, a KIDNEY_L ([…], time 14 day) of 1.3 g and a KIDNEY_R ([…], time 14 day) of 1.3 g. For the same compound, the KIDNEY_TOTAL ([…], time 14 day) was 2.6 g, the KIDNEY_L ([…], time 28 day) was 1.3 g and the KIDNEY_R ([…], time 28 day) was 1.4 g. For the same compound, the KIDNEY_TOTAL ([…], time 28 day) was 2.8 g, the LIVER ([…], time 7 day) was 12.4 g and the LIVER ([…], time 14 day) was 14.3 g. The LIVER ([…], time 28 day) was 13.8 g, the A/G ([…], time 7 day) was 1.1 and the ALP ([…], time 7 day) was 1498.6 IU/L. It also gave an ALT ([…], time 7 day) of 40 IU/L, an AST ([…], time 7 day) of 68.2 IU/L and a BUN ([…], time 7 day) of 19.2 mg/dL. The CRE ([…], time 7 day) was 0.2 mg/dL, the Ca ([…], time 7 day) was 10.3 mg/dL and the Cl ([…], time 7 day) was 106.2 meq/L. The DBIL ([…], time 7 day) was 0 mg/dL, the GLC ([…], time 7 day) was 185.4 mg/dL and the IP ([…], time 7 day) was 7.3 mg/dL. For the same compound, the K ([…], time 7 day) was 4.2 meq/L, the LDH ([…], time 7 day) was 184.6 IU/L and the Na ([…], time 7 day) was 142.2 meq/L. For the same compound, the PL ([…], time 7 day) was 150 mg/dL, the RALB ([…], time 7 day) was 3 g/dL and the TBIL ([…], time 7 day) was 0.004 mg/dL. It also gave a TC ([…], time 7 day) of 77.2 mg/dL, a TG ([…], time 7 day) of 106.2 mg/dL and a TP ([…], time 7 day) of 5.7 g/dL. It also gave a gamma-GTP ([…], time 7 day) of 1.8 IU/L, an A/G ([…], time 14 day) of 1.2 and an ALP ([…], time 14 day) of 1256.2 IU/L. The ALT ([…], time 14 day) was 37 IU/L, the AST ([…], time 14 day) was 64 IU/L and the BUN ([…], time 14 day) was 17.8 mg/dL. The CRE ([…], time 14 day) was 0.2 mg/dL, the Ca ([…], time 14 day) was 10.3 mg/dL and the Cl ([…], time 14 day) was 106.4 meq/L. The DBIL ([…], time 14 day) was 0 mg/dL, the GLC ([…], time 14 day) was 177.6 mg/dL and the IP ([…], time 14 day) was 7.4 mg/dL. The K ([…], time 14 day) was 4.2 meq/L, the LDH ([…], time 14 day) was 140.8 IU/L and the Na ([…], time 14 day) was 141.8 meq/L. The PL ([…], time 14 day) was 152.2 mg/dL, the RALB ([…], time 14 day) was 3.1 g/dL and the TBIL ([…], time 14 day) was 0.008 mg/dL. The TC ([…], time 14 day) was 82.4 mg/dL, the TG ([…], time 14 day) was 92.4 mg/dL and the TP ([…], time 14 day) was 5.8 g/dL. For the same compound, the gamma-GTP ([…], time 14 day) was 2.6 IU/L, the A/G ([…], time 28 day) was 1.1 and the ALP ([…], time 28 day) was 1031.2 IU/L. It also gave an ALT ([…], time 28 day) of 39.8 IU/L, an AST ([…], time 28 day) of 68.2 IU/L and a BUN ([…], time 28 day) of 16.6 mg/dL. For the same compound, the CRE ([…], time 28 day) was 0.2 mg/dL, the Ca ([…], time 28 day) was 10.1 mg/dL and the Cl ([…], time 28 day) was 107 meq/L. For the same compound, the DBIL ([…], time 28 day) was 0 mg/dL, the GLC ([…], time 28 day) was 192.2 mg/dL and the IP ([…], time 28 day) was 6.2 mg/dL. It also gave a K ([…], time 28 day) of 3.8 meq/L, an LDH ([…], time 28 day) of 134.6 IU/L and a Na ([…], time 28 day) of 143 meq/L. It also gave a PL ([…], time 28 day) of 137.6 mg/dL, an RALB ([…], time 28 day) of 3.2 g/dL and a TBIL ([…], time 28 day) of 0.016 mg/dL. The TC ([…], time 28 day) was 73.6 mg/dL, the TG ([…], time 28 day) was 97.6 mg/dL and the TP ([…], time 28 day) was 6.1 g/dL. For the same compound, the gamma-GTP ([…], time 28 day) was 2 IU/L.
